The source of these data is US20250163104A1, “MACROCYCLIC IMMUNOMODULATORS” (priority 2021, published 2025).

Where a SMILES comes first, the peptide text is derived from it. Bridges are numbered along the chain shown (N, C = ends). [ ]: non-standard residue; d: D form. The star is where a group is joined. ξ: configuration not given here. Phe(4-COOH) = N[C@@H](Cc1ccc(C(=O)O)cc1)C(=O)O; Phe(4-CH2NH2) = NCc1ccc(C[C@H](N)C(=O)O)cc1; Bip = N[C@@H](Cc1ccc(-c2ccccc2)cc1)C(=O)O; Phe(3-Me) = Cc1cccc(C[C@H](N)C(=O)O)c1; Val(3-OH) = CC(C)(O)[C@H](N)C(=O)O; 4Pal = N[C@@H](Cc1ccncc1)C(=O)O; Cha = N[C@@H](CC1CCCCC1)C(=O)O; Cit = NC(=O)NCCC[C@H](N)C(=O)O; Ile(3ξ) = CCC(C)[C@H](N)C(=O)O; Thr(3ξ) = CC(O)[C@H](N)C(=O)O; Carboxymethyl = O=C(O)C*; Orn = NCCC[C@H](N)C(=O)O; Pra = C#CC[C@H](N)C(=O)O; Dab = NCC[C@H](N)C(=O)O; Dap = NC[C@H](N)C(=O)O; ξA = CC(N)C(=O)O

T1 sequence (Q15116 25-288): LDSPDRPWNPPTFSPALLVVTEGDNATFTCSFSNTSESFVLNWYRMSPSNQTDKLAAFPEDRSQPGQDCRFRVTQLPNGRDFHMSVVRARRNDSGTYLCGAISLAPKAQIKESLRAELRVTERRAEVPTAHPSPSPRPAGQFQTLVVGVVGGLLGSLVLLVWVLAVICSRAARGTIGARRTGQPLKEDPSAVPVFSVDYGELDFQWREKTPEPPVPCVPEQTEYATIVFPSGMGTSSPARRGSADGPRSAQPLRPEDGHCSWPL

The experiment has as its target T1, human PD-1 / PD-L1-Ig binding on Jurkat cell line over-expressing human PD-1 (Jurkat-PD-1) (Homo sapiens, UniProt Q15116).
T1 construct: expressed in transfected cells; host or cells: Jurkat
Kind of experiment: Jurkat-PD-1 Cell Binding High-Content Screening Assay (CBA). It counts as cell-based. Particulars: Jurkat-PD-1 cells, PE-labeled PD-L1-Ig 20 nM final; read-out: Jurkat HPD1_PDL1 IC50. In a few lines: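 Jurkat-hPD-1 cells in DMEM with 10% fetal calf serum receive test compound and are held at 37° C for 2 h. PE-labeled PD-L1-Ig is added at 20 nM final and left for 1 hour. Cells are then fixed and Hoechst-stained, and binding is measured by imaging.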
For `C#CC[C@H](NC(=O)CNC(=O)[C@@H]1CSCC(=O)N[C@@H](CCN)C(=O)N[C@@H](Cc2ccc(OCC(=O)O)cc2)C(=O)N[C@@H](CC(=O)O)C(=O)N[C@@H](Cc2c[nH]c3ccccc23)C(=O)N[C@@H](C(C)C)C(=O)N[C@@H](Cc2ccc(-c3ccccc3)cc2)C(=O)N[C@@H](C(C)CC)C(=O)N[C@@H](CCCN)C(=O)N[C@H](CC(C)C)C(=O)N[C@@H](CCN)C(=O)N[C@@H](CC2CCCCC2)C(=O)N[C@@H](C(C)(C)O)C(=O)N[C@@H](CO)C(=O)N1)C(=O)O` (stereo partly drawn) [Compound 2319] ({CH2CO}-[Dab]Y(Carboxymethyl)DWV[Bip][Ile(3ξ)][Orn][dL][Dab][Cha][Val(3-OH)]SCG[Pra]-OH; thioether N-14), the IC50 – broadly, the point on the concentration scale where inhibition reaches its midpoint – came to 0.0243 µM.

As for `C#CC[C@H](NC(=O)CNC(=O)[C@@H]1CSCC(=O)N[C@@H](CN)C(=O)N[C@@H](Cc2ccc(OCC(=O)O)cc2)C(=O)N[C@@H](CC(=O)O)C(=O)N[C@@H](Cc2cccc(C)c2)C(=O)N[C@@H](Cc2ccc(OCC(=O)O)cc2)C(=O)N[C@@H](Cc2ccc(-c3ccccc3)cc2)C(=O)N[C@@H](Cc2ccc(OCC(=O)O)cc2)C(=O)N[C@@H](CCCN)C(=O)N[C@H](CC(C)C)C(=O)N[C@@H](CCN)C(=O)N[C@@H](CC2CCCCC2)C(=O)N[C@@H](C(C)(C)O)C(=O)N[C@@H](CO)C(=O)N1)C(N)=O` [Compound 2321] ({CH2CO}-[Dap]Y(Carboxymethyl)D[Phe(3-Me)]Y(Carboxymethyl)[Bip]Y(Carboxymethyl)[Orn][dL][Dab][Cha][Val(3-OH)]SCG[Pra]-NH2; thioether N-14), the IC50 came out at 0.0193 µM.

`C#CC[C@H](NC(=O)CNC(=O)[C@@H]1CSCC(=O)N[C@@H](CCN)C(=O)N[C@@H](Cc2ccc(OCC(=O)O)cc2)C(=O)N[C@@H](CC(=O)O)C(=O)N[C@@H](Cc2c[nH]c3ccccc23)C(=O)N[C@@H](C(C)C)C(=O)N[C@@H](Cc2ccc(-c3ccccc3)cc2)C(=O)N[C@@H](C(C)CC)C(=O)N[C@@H](CCCN)C(=O)N[C@H](CC(C)C)C(=O)N[C@@H](CCN)C(=O)N[C@@H](CC2CCCCC2)C(=O)N[C@@H](C(C)(C)O)C(=O)N[C@@H](CO)C(=O)N1)C(=O)O` (stereo partly drawn) [Compound 2322] ({CH2CO}-[Dab]Y(Carboxymethyl)DWV[Bip][Ile(3ξ)][Orn][dL][Dab][Cha][Val(3-OH)]SCG[Pra]-OH; thioether N-14): the IC50 stood at 0.0768 µM. For the compound `C#CC[C@H](NC(=O)[C@H](CCN)NC(=O)[C@@H]1CSCC(=O)N[C@@H](Cc2ccncc2)C(=O)N[C@@H](Cc2ccc(C(=O)O)cc2)C(=O)N[C@@H](CC(=O)O)C(=O)N[C@@H](Cc2cccc(C)c2)C(=O)N[C@@H](Cc2ccc(OCC(=O)O)cc2)C(=O)N[C@@H](Cc2ccc(-c3ccccc3)cc2)C(=O)N[C@@H](Cc2ccc(OCC(=O)O)cc2)C(=O)N[C@@H](CCCN)C(=O)N[C@H](CC(C)C)C(=O)N[C@@H](CCN)C(=O)N[C@@H](CC2CCCCC2)C(=O)N[C@@H](C(C)(C)O)C(=O)N[C@@H](CO)C(=O)N1)C(=O)O` [Compound 2324] ({CH2CO}-[4Pal][Phe(4-COOH)]D[Phe(3-Me)]Y(Carboxymethyl)[Bip]Y(Carboxymethyl)[Orn][dL][Dab][Cha][Val(3-OH)]SC[Dab][Pra]-OH; thioether N-14), the IC50 was 0.247 µM. As for `C#CC[C@H](NC(=O)[C@@H](C)NC(=O)[C@@H]1CSCC(=O)N[C@@H](Cc2c[nH]cn2)C(=O)N[C@@H](Cc2ccc(OCC(=O)O)cc2)C(=O)N[C@@H](CC(=O)O)C(=O)N[C@@H](Cc2c[nH]c3ccccc23)C(=O)N[C@@H](C(C)C)C(=O)N[C@@H](Cc2ccc(-c3ccccc3)cc2)C(=O)N[C@@H](C(C)C)C(=O)N[C@@H](CCCN)C(=O)N[C@H](CC(C)C)C(=O)N[C@@H](CCN)C(=O)N[C@@H](CC2CCCCC2)C(=O)N[C@@H](C(C)(C)O)C(=O)N[C@@H](CO)C(=O)N1)C(N)=O` [Compound 2326] ({CH2CO}-HY(Carboxymethyl)DWV[Bip]V[Orn][dL][Dab][Cha][Val(3-OH)]SC[dA][Pra]-NH2; thioether N-14), the IC50 was 0.0077 µM.

Turning to `C#CC[C@H](NC(=O)[C@@H](C)NC(=O)[C@@H]1CSCC(=O)N[C@@H](Cc2c[nH]cn2)C(=O)N[C@@H](Cc2ccc(OCC(=O)O)cc2)C(=O)N[C@@H](CC(=O)O)C(=O)N[C@@H](Cc2c[nH]c3ccccc23)C(=O)N[C@@H](C(C)C)C(=O)N[C@@H](Cc2ccc(-c3ccccc3)cc2)C(=O)N[C@@H](C(C)C)C(=O)N[C@@H](CCCN)C(=O)N[C@H](CC(C)C)C(=O)N[C@@H](CCN)C(=O)N[C@@H](CC2CCCCC2)C(=O)N[C@@H](C(C)(C)O)C(=O)N[C@@H](CO)C(=O)N1)C(N)=O` [Compound 2327] ({CH2CO}-HY(Carboxymethyl)DWV[Bip]V[Orn][dL][Dab][Cha][Val(3-OH)]SC[dA][Pra]-NH2; thioether N-14), the IC50 was 0.0085 µM. For the compound `C#CC[C@H](NC(=O)[C@@H](C)NC(=O)[C@@H]1CSCC(=O)N[C@@H](Cc2ccncc2)C(=O)N[C@@H](Cc2ccc(OCC(=O)O)cc2)C(=O)N[C@@H](CC(=O)O)C(=O)N[C@@H](Cc2cccc(C)c2)C(=O)N[C@@H](Cc2ccc(OCC(=O)O)cc2)C(=O)N[C@@H](Cc2ccc(-c3ccccc3)cc2)C(=O)N[C@@H](Cc2ccc(OCC(=O)O)cc2)C(=O)N[C@@H](CCCN)C(=O)N[C@H](CC(C)C)C(=O)N[C@@H](CCN)C(=O)N[C@@H](CC2CCCCC2)C(=O)N[C@@H](C(C)(C)O)C(=O)N[C@@H](CO)C(=O)N1)C(N)=O` [Compound 2328] ({CH2CO}-[4Pal]Y(Carboxymethyl)D[Phe(3-Me)]Y(Carboxymethyl)[Bip]Y(Carboxymethyl)[Orn][dL][Dab][Cha][Val(3-OH)]SC[dA][Pra]-NH2; thioether N-14), the IC50 amounted to 0.632 µM. Consider `C#CC[C@H](NC(=O)C(C)NC(=O)[C@@H]1CSCC(=O)N[C@@H](Cc2ccncc2)C(=O)N[C@@H](Cc2ccc(C(=O)O)cc2)C(=O)N[C@@H](CC(=O)O)C(=O)N[C@@H](Cc2cccc(C)c2)C(=O)N[C@@H](Cc2ccc(OCC(=O)O)cc2)C(=O)N[C@@H](Cc2ccc(-c3ccccc3)cc2)C(=O)N[C@@H](Cc2ccc(OCC(=O)O)cc2)C(=O)N[C@@H](CCCN)C(=O)N[C@H](CC(C)C)C(=O)N[C@@H](CCN)C(=O)N[C@@H](CC2CCCCC2)C(=O)N[C@@H](C(C)(C)O)C(=O)N[C@@H](CO)C(=O)N1)C(N)=O` (stereo partly drawn) [Compound 2329] ({CH2CO}-[4Pal][Phe(4-COOH)]D[Phe(3-Me)]Y(Carboxymethyl)[Bip]Y(Carboxymethyl)[Orn][dL][Dab][Cha][Val(3-OH)]SC[ξA][Pra]-NH2; thioether N-14), for which the IC50 amounted to 0.973 µM. In the case of `Cc1cccc(C[C@@H]2NC(=O)[C@H](CC(=O)O)NC(=O)[C@H](Cc3ccc(C(=O)O)cc3)NC(=O)[C@H](Cc3ccncc3)NC(=O)CSC[C@@H](C(=O)N[C@@H](CCN)C(N)=O)NC(=O)[C@H](CCC(=O)O)NC(=O)[C@H](C(C)(C)O)NC(=O)[C@H](CC3CCCCC3)NC(=O)[C@H](CCN)NC(=O)[C@@H](CC(C)C)NC(=O)[C@H](CCCN)NC(=O)[C@H](Cc3ccc(OCC(=O)O)cc3)NC(=O)[C@H](Cc3ccc(-c4ccccc4)cc3)NC(=O)[C@H](Cc3ccc(OCC(=O)O)cc3)NC2=O)c1` [Compound 2330] ({CH2CO}-[4Pal][Phe(4-COOH)]D[Phe(3-Me)]Y(Carboxymethyl)[Bip]Y(Carboxymethyl)[Orn][dL][Dab][Cha][Val(3-OH)]EC[Dab]-NH2; thioether N-14), the IC50 was determined as 0.249 µM. The value for `Cc1cccc(C[C@@H]2NC(=O)[C@H](CC(=O)O)NC(=O)[C@H](Cc3ccc(OCC(=O)O)cc3)NC(=O)[C@H](Cc3ccccc3)NC(=O)CSC[C@@H](C(=O)N[C@@H](C)C(N)=O)NC(=O)[C@H](C(C)O)NC(=O)[C@H](C(C)C)NC(=O)[C@H](CC3CCCCC3)NC(=O)[C@H](CN)NC(=O)[C@@H](CC(C)C)NC(=O)[C@H](CCCN)NC(=O)[C@H](CCCNC(N)=O)NC(=O)[C@H](Cc3ccc(-c4ccccc4)cc3)NC(=O)[C@H](C(C)C)NC2=O)c1` (stereo partly drawn) [Compound 2500] ({CH2CO}-FY(Carboxymethyl)D[Phe(3-Me)]V[Bip][Cit][Orn][dL][Dap][Cha]V[Thr(3ξ)]CA-NH2; thioether N-14) was 0.01 µM; that for `CC(=O)NCCCC[C@@H]1NC(=O)[C@H](CCCNC(N)=O)NC(=O)[C@H](Cc2ccc(-c3ccccc3)cc2)NC(=O)[C@H](C(C)C)NC(=O)[C@H](Cc2cccc(C)c2)NC(=O)[C@H](CC(N)=O)NC(=O)[C@H](Cc2ccc(OCC(=O)O)cc2)NC(=O)[C@H](Cc2ccccc2)NC(=O)CSC[C@@H](C(=O)N[C@@H](C)C(N)=O)NC(=O)[C@H](CO)NC(=O)[C@H](C(C)C)NC(=O)[C@H](CC2CCCCC2)NC(=O)[C@H](CC(N)=O)NC(=O)[C@@H](CC(C)C)NC1=O` [Compound 2501] ({CH2CO}-FY(Carboxymethyl)N[Phe(3-Me)]V[Bip][Cit]K(Ac)[dL]N[Cha]VSCA-NH2; thioether N-14) was 0.0173 µM.

As for `CC(=O)NCCCC[C@@H]1NC(=O)[C@H](CCCNC(N)=O)NC(=O)[C@H](Cc2ccc(-c3ccccc3)cc2)NC(=O)[C@H](CC(C)C)NC(=O)[C@H](Cc2c[nH]c3ccccc23)NC(=O)[C@H](CC(N)=O)NC(=O)[C@H](Cc2ccc(OCC(=O)O)cc2)NC(=O)[C@H](Cc2ccccc2)NC(=O)CSC[C@@H](C(=O)N[C@@H](C)C(N)=O)NC(=O)[C@H](CO)NC(=O)[C@H](C(C)C)NC(=O)[C@H](CC2CCCCC2)NC(=O)[C@H](CC(N)=O)NC(=O)[C@@H](CC(C)C)NC1=O` [Compound 2502] ({CH2CO}-FY(Carboxymethyl)NWL[Bip][Cit]K(Ac)[dL]N[Cha]VSCA-NH2; thioether N-14), the IC50 is 0.0508 µM. Turning to `CC(C)C[C@@H]1NC(=O)[C@H](Cc2c[nH]c3ccccc23)NC(=O)[C@H](CC(=O)O)NC(=O)[C@H](Cc2ccc(CN)cc2)NC(=O)[C@H](Cc2ccccc2)NC(=O)CSC[C@@H](C(=O)N[C@@H](C)C(N)=O)NC(=O)[C@H](CO)NC(=O)[C@H](C(C)C)NC(=O)[C@H](CC2CCCCC2)NC(=O)[C@H](CN)NC(=O)[C@@H](CC(C)C)NC(=O)[C@H](CCCN)NC(=O)[C@H](CCCNC(N)=O)NC(=O)[C@H](Cc2ccc(-c3ccccc3)cc2)NC1=O` [Compound 2503] ({CH2CO}-F[Phe(4-CH2NH2)]DWL[Bip][Cit][Orn][dL][Dap][Cha]VSCA-NH2; thioether N-14), the IC50 was 0.033 µM.
